The values below come from US20140024674A1, “TRPM5 INHIBITORS SUPPORT BODY WEIGHT REDUCTION WITHOUT REDUCING FOOD INTAKE” (NESTEC S.A., priority 2011, published 2014).

“Also recorded” adds a separate entry of the source.

Assay [1] deals with T1, Trpm5 (Mus musculus, UniProt Q9JJH7).
T1 sequence (Q9JJH7 1-1158): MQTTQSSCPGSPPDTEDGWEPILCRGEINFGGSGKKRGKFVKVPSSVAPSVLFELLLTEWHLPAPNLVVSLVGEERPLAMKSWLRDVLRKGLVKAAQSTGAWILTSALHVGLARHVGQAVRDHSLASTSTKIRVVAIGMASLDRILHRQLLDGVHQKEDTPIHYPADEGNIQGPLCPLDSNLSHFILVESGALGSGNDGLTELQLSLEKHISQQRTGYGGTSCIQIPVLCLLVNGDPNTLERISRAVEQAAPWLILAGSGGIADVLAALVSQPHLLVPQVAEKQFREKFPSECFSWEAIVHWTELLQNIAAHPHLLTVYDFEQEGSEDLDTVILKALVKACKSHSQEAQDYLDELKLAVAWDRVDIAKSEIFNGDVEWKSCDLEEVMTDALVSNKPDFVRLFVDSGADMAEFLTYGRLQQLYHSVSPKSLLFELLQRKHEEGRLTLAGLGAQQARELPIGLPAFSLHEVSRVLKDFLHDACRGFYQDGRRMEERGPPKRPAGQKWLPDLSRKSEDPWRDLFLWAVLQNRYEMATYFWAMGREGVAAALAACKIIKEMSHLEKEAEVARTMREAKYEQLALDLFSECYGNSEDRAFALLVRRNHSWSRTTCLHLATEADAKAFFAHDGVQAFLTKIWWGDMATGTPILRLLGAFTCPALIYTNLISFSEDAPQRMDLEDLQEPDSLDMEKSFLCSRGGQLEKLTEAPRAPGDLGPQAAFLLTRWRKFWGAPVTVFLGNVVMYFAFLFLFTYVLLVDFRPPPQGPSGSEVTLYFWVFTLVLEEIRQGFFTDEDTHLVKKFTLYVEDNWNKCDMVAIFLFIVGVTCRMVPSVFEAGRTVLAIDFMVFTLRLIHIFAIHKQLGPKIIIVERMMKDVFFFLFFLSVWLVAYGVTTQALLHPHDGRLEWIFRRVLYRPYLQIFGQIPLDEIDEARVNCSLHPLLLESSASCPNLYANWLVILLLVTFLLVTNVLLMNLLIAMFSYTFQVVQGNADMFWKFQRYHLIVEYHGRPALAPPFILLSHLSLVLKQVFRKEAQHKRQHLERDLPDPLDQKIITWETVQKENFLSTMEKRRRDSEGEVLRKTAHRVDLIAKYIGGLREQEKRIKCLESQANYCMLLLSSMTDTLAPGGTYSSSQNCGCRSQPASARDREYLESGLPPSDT
Conditions: Talayera et al, 2008, FASEB J.; cited from earlier work.

Assay [2] in a line: Quinine-supplemented diet in wild type mice over 12 weeks: body weight, body composition (NMR), food intake. The assay is classed as in vivo. Conditions: for mean fat mass at the end of the trial: control 7.65 g±0.47. How it is done:
Body composition was determined on […] mice by nuclear magnetic resonance (NMR) using an EchoMRI-900 Body Composition Analyzer (Echo Medical System, LLC, Houston, Tex., USA).
Three groups of wild type male C57BL6 mice 3 months old, 20 mice per group, were fed either a semi-synthetic (AlN) diet, or AlN diet with 0.1% quinine, or AlN diet with 0.01% quinine.
Body weight was measured weekly, body composition was measured monthly, food and fluid intake were measured twice a week over a period of 12 weeks.

`C=C[C@H]1CN2CC[C@H]1C[C@H]2[C@H](O)c1ccnc2ccc(OC)cc12` [quinine, (R)-(6-methoxyquinolin-4-yl)((2S,4S,8R)-8-vinylquinuclidin-2-yl)methanol]: the “inhibition of Trpm5” value in assay [1] is reported as “inhibitor of Trpm5”. In addition, the “mean fat mass at the end of the trial” value in assay [2] (wild type male C57BL6 mice, AlN diet with 0.01% quinine, 12 weeks, NMR) is recorded as 7.9675 g; in assay [2] (wild type male C57BL6 mice, AlN diet with 0.1% quinine, 12 weeks, NMR, p<0.01 compared to control), 5.524 g. For the same compound, the Body weight gain result is “not different from control” in assay [2] (wild type male C57BL6 mice, AlN diet with 0.01% quinine, 12 weeks, vs control diet) and “gained less weight; also recorded: significantly lower” in assay [2] (wild type male C57BL6 mice, AlN diet with 0.1% quinine, 12 weeks, vs control diet (p<0.01)). Also, the lean mass entry in assay [2] (wild type male C57BL6 mice, diet with 0.1% or 0.01% quinine vs control diet, 12 weeks, NMR) is “no difference between groups”. Further, in assay [2] (wild type male C57BL6 mice, diet with 0.1% or 0.01% quinine vs control diet, over 12 weeks), the Total food intake result was “food intake was not different between the groups; also recorded: no difference in food intake between groups”. In assay [2] (wild type mice, 0.1% quinine supplemented diet, 12 weeks), the “fat mass gain vs control diet” value was “gained less weight and fat mass”.
